Experimental data taken from PubChem BioAssay (NCI).
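All cell lines were grown in 96-well plates and treated with compound for 48 hours. Definition used: TGI = concentration required for complete inhibition of growth.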

Columns and labels:
Assay in all cases: DTP human tumour cell line panel, 48 h
COLO 205 colon = tested on: COLO 205 colon
PC-3 prostate = tested on: PC-3 prostate
MALME-3M melanoma = tested on: MALME-3M melanoma
MDA-MB-435 = tested on: MDA-MB-435
BT-549 breast = tested on: BT-549 breast
EKVX NSCLC = tested on: EKVX NSCLC
UO-31 renal = tested on: UO-31 renal
OVCAR-5 ovarian = tested on: OVCAR-5 ovarian
SK-OV-3 ovarian = tested on: SK-OV-3 ovarian
MDA-N = tested on: MDA-N
RPMI-8226 leukemia = tested on: RPMI-8226 leukemia

Structure (SMILES) | TGI (COLO 205 colon) [µM] | TGI (PC-3 prostate) [µM] | TGI (MALME-3M melanoma) [µM] | TGI (MDA-MB-435) [µM] | TGI (BT-549 breast) [µM] | TGI (EKVX NSCLC) [µM] | TGI (UO-31 renal) [µM] | TGI (OVCAR-5 ovarian) [µM] | TGI (SK-OV-3 ovarian) [µM] | TGI (MDA-N) [µM] | TGI (RPMI-8226 leukemia) [µM]
COc1ccc(Oc2cccc(/C=C3/C(=O)Nc4ccccc43)c2)cc1 | 14 | 18.8 | 24.2 | 13.8 | 29.5 | 25.1 | 20 | 31.5 | 31 | – | –
Nc1cc2c3c(c1)Oc1cc(N)cc4c1C3c1c(cc(N)cc1O4)O2 | 34.3 | 98.3 | 22.8 | > 86.9 | 51.3 | > 47.7 | > 100 | > 100 | > 100 | 59.5 | 52.2
CC(=O)ON(C(C)=O)c1ccc(-c2nc3ccccc3s2)cc1 | > 53.7 | > 100 | 30.5 | > 60.3 | > 100 | 65.2 | 33.2 | 98.6 | > 100 | > 77 | 55.4
CC(C)(C)c1cc(C(=O)Nc2cc(Br)c(Br)cc2S(N)(=O)=O)cc(C(C)(C)C)c1O | 19.1 | 22.9 | 26.6 | 24.7 | 25.4 | 26.2 | 24.7 | 24.9 | 31.3 | – | > 100
COc1cc(C2SCC(=O)N2c2cc(Cl)c(Cl)cc2Cl)cc(OC)c1OC (stereo not given) | > 100 | > 100 | – | > 100 | 64.7 | > 100 | > 100 | > 100 | > 100 | 95.4 | 89.7
Nc1ccc(S(=O)(=O)Nc2nnc(S(N)(=O)=O)s2)cc1 | > 100 | – | > 100 | > 100 | > 100 | > 100 | > 100 | > 100 | > 100 | – | > 100
Oc1ccc(-c2csc(NNC3=NC/C(=C/c4ccc5c(c4)OCO5)S3)n2)cc1O | > 100 | > 100 | – | > 100 | – | > 100 | 69.2 | > 100 | > 100 | > 100 | –
CC[C@@]1(N(C)C)C(=O)OCc2c1cc1n(c2=O)Cc2cc3ccccc3nc2-1 | > 100 | > 100 | 55.3 | > 100 | 39.5 | > 100 | 77 | > 100 | 51.5 | – | > 100
Cc1c(C#N)c2nnn(-c3ccc(Cl)cc3)c(=O)n2c1-c1ccccc1 | 0.319 | 9.12 | 34.4 | 0.154 | 24.9 | 31.3 | > 51.3 | 32.1 | 30 | – | > 30.6
C=C(C)C(=O)O[C@H]1C/C(CO)=C/CCC(=C)C(OC(C)=O)[C@H]2OC(=O)C(=C)[C@H]12 (stereo not given in full) | 15.7 | 58.9 | 26.7 | 17.8 | 12.1 | – | 17.7 | 88.7 | > 100 | 19.1 | 19.3
COc1ccccc1/C=C/C1=NN(c2cccc(S(=O)(=O)O)c2)C2(C1)SCC(=O)N2c1nc2ccccc2s1 (stereo not given) | > 100 | > 100 | > 100 | > 100 | > 100 | > 100 | > 100 | > 100 | – | > 100 | 65.4
O=S(=O)(O)c1c(Cl)cc(O)c2ncccc12 | > 100 | > 100 | – | > 100 | > 100 | > 100 | > 100 | > 100 | – | > 100 | > 100
COc1cc2c(/C=C3/C(=O)N(C)c4ccccc43)c(Cl)[nH]c2cc1C | 0.579 | 13 | – | 0.038 | 3.64 | > 47.2 | > 58.3 | > 57.2 | 0.629 | 0.153 | 7.79
COc1ccc2nc3cc(Cl)ccc3c(NCCCN(Cc3cc(OC)c(OC)c(OC)c3)Cc3cc(OC)c(OC)c(OC)c3)c2c1 | 23.5 | 30.6 | 44.1 | – | 28 | 37.4 | 26.1 | 27.9 | 32.8 | – | 32
CC1=NCCN=C(C)C1N=Nc1ccc2nc(C)[nH]c2c1 | 53.6 | 22.3 | 41.5 | 22.3 | 28.2 | 39.6 | – | 39.9 | 39.2 | 29.3 | 17.4
COc1cc(-c2cn(S(=O)(=O)c3ccc(C)cc3)c3ccccc23)nc(-c2cn(S(=O)(=O)c3ccc(C)cc3)c3ccccc23)n1 | 3.31 | 38.5 | – | 0.47 | > 100 | > 100 | > 75.1 | 19.6 | > 100 | 1.88 | > 100

Structure (SMILES) | TGI (COLO 205 colon) [µM] | TGI (PC-3 prostate) [µM] | TGI (MALME-3M melanoma) [µM] | TGI (MDA-MB-435) [µM] | TGI (BT-549 breast) [µM] | TGI (EKVX NSCLC) [µM] | TGI (UO-31 renal) [µM] | TGI (OVCAR-5 ovarian) [µM] | TGI (SK-OV-3 ovarian) [µM] | TGI (MDA-N) [µM] | TGI (RPMI-8226 leukemia) [µM]
COc1ccc(C2=CC(c3ccccc3)n3nnnc3N2)cc1 (stereo not given) | > 100 | > 100 | – | > 100 | – | – | > 100 | > 100 | > 100 | – | > 100
Nc1sc2c(c1C(=O)c1ccc(Cl)c(Cl)c1)CCCC2 | > 100 | > 100 | > 100 | > 100 | > 100 | > 100 | > 100 | > 100 | > 100 | – | 78.1
CC1CC(C)C(O)C(C2CC(CC(=O)NC3CCCCC3)CC(=O)O2)C1 (stereo not given) | > 100 | > 100 | > 100 | > 100 | – | > 100 | – | > 100 | – | > 100 | > 100
Cc1ccc2c3c1O[C@H]1c4[nH]c5ccccc5c4C[C@@]4(O)[C@@H](C2)N(C)CC[C@]314 | 30.2 | 33.6 | 29.3 | 28.3 | 31.8 | – | 27.1 | 38.2 | – | 33.3 | 31.6
COC(=O)c1c2c(cc3c1CC1(Cc4cc5c(c(C=O)c4C1)CCCC5)C3)CCCC2 (stereo not given) | 36.6 | > 100 | > 100 | > 100 | – | > 100 | 0.268 | > 100 | > 100 | > 100 | > 100
NNC(=O)CSc1nc2ccc(I)cc2c(=O)n1Cc1ccccc1 | 53.2 | 69.3 | – | > 100 | 42.6 | 33.2 | 35.4 | 40.9 | 32.7 | > 100 | 54.7
OCC1OC(n2nc(-c3ccccc3)nc2-c2cnccn2)C(O)C(O)C1O (stereo not given) | > 100 | > 100 | – | > 100 | > 100 | – | > 100 | > 100 | > 100 | > 100 | > 100
CCOC(=O)c1cnn2c1ncc1c(=O)n(NC(N)=O)ccc12 | > 100 | > 100 | > 100 | > 100 | > 100 | > 100 | > 100 | > 100 | > 100 | > 100 | –
CC(C)(C)c1cc(CC2C(=O)c3ccccc3C2=O)cc(C(C)(C)C)c1O | 30.7 | 10.3 | – | 20 | 18.1 | 28 | 10.5 | 57.6 | 7.71 | > 100 | 3.34
Cc1ccc(C2=Nc3cc(C)c(Cl)cc3S(=O)(=O)NN2)cc1 | > 100 | > 100 | > 100 | > 100 | > 100 | > 100 | > 100 | – | > 100 | > 100 | > 100
Cc1ccc(S(=O)(=O)N2CCCN(S(=O)(=O)c3ccc(C)cc3)CCN(S(=O)(=O)c3ccc(C)cc3)CCCSCC2)cc1 | > 100 | – | – | > 100 | > 100 | > 100 | > 100 | > 100 | > 100 | > 100 | > 100
O=C1c2c(Cl)c(Cl)c(Cl)c(Cl)c2C(=O)N1CCN(c1c(Cl)ssc1=O)c1c(Cl)ssc1=O | 35 | 56.8 | 53.6 | 45.4 | > 100 | 88.6 | 32.3 | > 100 | > 100 | 33.3 | –
O=P1(O)C=CC2(CCCC2)O1 | > 100 | > 100 | > 100 | > 100 | – | > 100 | – | > 100 | > 100 | > 100 | –
CC(=O)Nc1ccc(Nc2cc(=O)[nH]c(=O)[nH]2)cc1 | > 100 | > 100 | > 100 | > 100 | > 100 | > 100 | > 100 | > 100 | – | > 100 | > 100
O=C(OCc1ccccc1CN1CCOCC1)c1cccc(Br)c1 | > 100 | > 100 | 45 | > 100 | > 100 | > 100 | > 100 | > 100 | > 100 | – | –
